In patent publication US10800790B2, “Sesquiterpenoid STAT3 inhibitors” (University of Hawaii, priority 2013, dated 2020):

What was measured:
pSTAT5 = assay: Immunoblotting of EGF-induced pSTAT5 in NIH3T3/hEGFR; conditions: 5 micromolar
Protocol: To determine the specificity of agents, mouse fibroblasts over-expressing the human EGF receptor (NIH3T3/hEGFR) were treated with the compounds and stimulated with EGF.
(A-C) SDS-PAGE and Western blotting analysis of whole-cell lysates of equal total protein prepared from (A) EGF-stimulated NIH3T3/hEGFR cells pre-treated with the 5 micromolar of the designated agents for 24 h and probing for pY705STAT3, STAT3, pY701 STAT1, STAT1, pY694STAT5, STAT5 or GAPDH, or the human glioma, U251MG cells treated with 5 micromolar of the designated inhibitors for (B) 0-32 h and probing for pS-Akt, Akt, pErk1/2, Erk1/2, pJAK2, JAK2, SOCS3, PTP1B, pSTAT3, STAT3, β-actin or GAPDH; or (C) 3 h in the absence or presence of increasing concentration of Na3VO4 and probing for pSTAT3, STAT3 or GAPDH/.

U251MG cells = assay: Colony survival assay, U251MG; format: cell-based, human
Protocol: The effect of the isolated or synthesized compounds in a colony survival assay was performed.
This assay was performed as previously reported (Xu, Y., supra). The assay was performed as previously reported. Briefly, cells were seeded as single-cell in 6-well plates (250 cells per well), treated once the next day with compounds for 72 h, and allowed to grow until large colonies were visible. Colonies were stained with crystal violet for 4 h and counted with FluorChem imaging system (Protein Simple, Santa Clara, Calif.).

U251 MG cells = assay: iTRAQ proteomics with immunoblot validation, U251 MG cells; format: cell-based, human
Protocol: To investigate the possibility that the hirsutinolides could induce global molecular changes in the sensitive malignant cells, lysates were prepared from U251 MG cells untreated or treated with 6 or 22 for 1 h and analyzed by isobaric peptide labeling and nanoLC-MS/MS analysis (iTRAQ) proteomics method (Ross, P. L., et al., Multiplexed protein quantitation in Saccharomyces cerevisiae using amine-reactive isobaric tagging reagents, Mol Cell Proteomics., 2004. 3: p. 1154-69), as described in the Examples section. A search was pursed of the 341,908 mass spectrometry spectra using ProteinPilot (version 4.5; Applied Biosystems) against the National Center for Biotechnology Information non-redundant reference sequence (NCBInr) human database and based on the criteria of choosing only proteins with at least 95% confidence and with a “Local False Discovery Rate” no higher than 5%, as calculated from the slope of the accumulated Decoy database hits by the PSPEP estimation. […]
Cellular samples were prepared according to the Pennsylvania STATe University College of Medicine Mass Spectrometry and Proteomics Core (MSPC) facility (Hershey, Pa.) standard protocol, adapted from the manufacturer's instructions (Applied Biosystems Sciex, Foster City, Calif.), combined with filter-aided sample preparation, as previously reported. […] For iTRAQ analysis (Ross, P. L., et al., Multiplexed protein quantitation in Saccharomyces cerevisiae using amine-reactive isobaric tagging reagents, Mol Cell Proteomics., 2004, 3: p. 1154-69), one hundred micrograms of whole-cell lysates from U251 MG cells untreated (DMSO control) or treated with 5 micromolar of compounds 22 or 6 for 1 h were independently digested, and their corresponding cellular proteins were differently labeled with 114, 115 or 117 tags, respectively, using iTRAQ reagents. […] Protein identification and quantification for iTRAQ samples were carried out using ProteinPilot™ software (version 4.5; Applied Biosystems, MDS-Sciex, Framingham, Mass.). […]

[1] = system: U251MG glioblastoma cells; assay: CyQuant cell viability/proliferation assay, U251MG; format: cell-based, human; conditions: Table 1/FIG. 2 numbering
Protocol: (§1) The cell viability assay was performed as previously reported (Zhang X, et al. (2010)). Briefly, a 10 millimolar concentration stock solution in dimethylsulfoxide (DMSO) of the tested molecule was first prepared. Next, the stock solution was diluted down to various working solutions in water. Thus, a formulation of the tested compound in a DMSO/water mixture was used to test for cell viability. (A novel small-molecule disrupts STAT3 SH2 domainphosphotyrosine interactions and STAT3-dependent tumor processes, Biochem Pharmacol 79:1398-1409; Zhao W, Jaganathan S, & Turkson J (2010), A cell-permeable STAT3 SH2 domain mimetic inhibits STAT3 activation and induces antitumor cell effects in vitro. J Biol Chem. 285:35855-35865). Cells (U251MG, MDA-MB-231 or NIH3T3) were obtained from ATCC (Manassas, Va.) and were cultured in 96-well plates at 2,000 cells per well for 24 h and were treated with compounds (5 micromolar concentration) for 72 h. Cell viabilty was determined using CyQuant assay, according to the manufacturer's (Invitrogen, CA, USA) instructions. Relative viability of the treated cells was normalized to the DMSO-treated control cells.

[2] = system: normal NIH3T3 mouse fibroblasts; assay: CyQuant cell viability/proliferation assay, NIH3T3; format: cell-based; set-up: key to Activity against 3T3: +, active; −, no activity; +/−, poorly active; conditions: Table 1 grade; Table 1/FIG. 2 compound numbering
Protocol: as §1

[3] = system: MDA-MB-231 breast cancer cells; assay: CyQuant cell viability/proliferation assay, MDA-MB-231; format: cell-based, human; set-up: key to Activity against 231: +, active; −, no activity; +/−, poorly active; conditions: Table 1 grade; Table 1/FIG. 2 compound numbering
Protocol: as §1

[4] = system: GSH levels in U251 MG cells; assay: Glutathione (GSH) levels in U251 MG cells
Protocol: Reduced glutathione (GSH) and oxidized glutathione disulfide (GSSG) levels were assayed using a commercially available kit (Cayman Chemical, Ann Arbor, Mich.) and following the manufacturer's instructions.

[5] = system: pY705STAT3 in U251MG or MDA-MB-231 cells; assay: Immunoblotting of pY705STAT3 in treated tumor cells
Protocol: Positions of STATs:DNA complexes or proteins in gel are labeled; control lanes (0) represent nuclear extracts or whole-cell lysates prepared from 0.05% DMSO-treated cells. Data are representative of at least three to four independent determinations.
Lysates of equal total protein prepared in the lysis buffer (50 mM Hepes, pH 7.5, 150 mM NaCl, 2 mM EDTA, 1% Triton X-100, 0.1% SDS), were subjected to IP or Western blotting analysis. Antibodies against STAT3, pY705STAT3, Src, pY416Src, Erk1/2, and pT202/Y204Erk1/2 and GAPDH (Cell Signaling Technology, Danvers, Mass.), and anti-β-actin, and HSP105 (Santa Cruz Biotechnology, Dallas, Tex.) are from the designated sources.
Whole-cell lysates were prepared in boiling SDS sample loading buffer to extract total proteins, as reported previously. […] Nitrocellulose membranes were probed with primary antibodies, and the detection of horseradish peroxidase-conjugated secondary antibodies by enhanced chemiluminescence (Amersham) was performed. Antibodies used were monoclonal anti-pYSTAT3 and anti-STAT3 antibodies (Cell Signaling Technology, Danvers, Mass.).

(4S,6R,E)-4,7-dihydroxy-6,10-dimethyl-2-oxo-2,4,5,6,7,8,9,10-octahydro-7,10-epoxycyclodeca[b]furan-3-yl)methyl(E)-2-methylbut-2-enoate [Compound 22]
Effect on EGF-induced pSTAT5 (pSTAT5): no effects | Preferential effect on colony survival of U251MG and MDA-MB231 over MCF-7 (U251MG cells): 2.5 fold | Expression of GCN1 (immunoblot) (U251 MG cells; U251MG): reduced expression | Importin subunit α-2 up (U251 MG cells; iTRAQ, 5 micromolar, 1 h): 2 fold | MAP1B down (U251 MG cells; iTRAQ, 5 micromolar, 1 h): ~2 fold | IC50 ([1]; 72-h treatment, read-out: IC50 for the inhibition of U251MG cell viability): 2600 nM | Cell-type selectivity of growth inhibition, in words ([1]; U251MG versus other cells incl. NIH3T3): selective against the growth of human glioma U251MG cells | Activity against 3T3 [2]: +/− | Activity against 231 [3]: + | Effect on GSH levels [4]: did not repress GSH levels | Effect on pY705STAT3 / STAT3 activity (immunoblot), in words ([5]; 5 micromolar, 0-24 h, U251MG or MDA-MB-231, Table 1/FIG. 2 numbering): early inhibition at 15-30 min | pY705STAT3 inhibition in combination with sodium orthovanadate ([5]; U251MG, 5 micromolar compound, 10-300 micromolar orthovanadate, 3 h): failed to overcome the inhibitory effect
